These results are taken from patent US10501503B2, “Modified membrane permeability” (Cathay Biotech Inc., priority 2015, dated 2019).

In one assay the test system is E. coli. The settings on record: Qian et al., Biotechnology and Bioengineering 108:93-103, 2010; cited from earlier work.
The test system of another assay is H. alvei. Briefly: Cadaverine inhibits gram-negative bacteria: lysine-to-cadaverine conversion after pre-incubation in cadaverine. The settings on record: 3% cadaverine for 24 hours. The assay is classed as cell-based, Hafnia alvei. The method, then: We studied the affect of cadaverine on the gram-negative bacteria H. alvei. First, H. alvei was transformed with pCIB60 and grown for 24 hours in 50 mL LB medium with ampicillin (100 μg/mL) at 37° C. The following day, 50 mL of the seed culture was added to a 10 L jar fermenter containing […] of fermentation medium (20 g/L glucose, 30 g/L corn steep liquor, 10 g/L yeast extract, 5 g/L ammonium sulfate, 10 g/L MgSO4, 0.05 g/L FeSO4, 0.05 g/L MnSO4, 5 g/L CaCl2, 0.1 g/L ampicillin), and the fermentation proceeded for 18 hours. 10 g of fermentation broth was collected, centrifuged at 6000 rpm for 5 min at room temperature, and the biomass was recovered. 0.5 g of biomass was added to a 50 mM potassium phosphate buffer with either 0% or 3% cadaverine for 24 hours. After incubation, each sample was centrifuged at 6000 rpm for 5 min at room temperature, the biomass was recovered, and fresh potassium phosphate buffer with lysine-HCl and PLP to a final concentration of 200 g/L and 0.1 mM, respectively, was added. The initial pH of the reaction as adjusted to 5.0, and the reaction was allowed to proceed for 120 minutes at 37° C. […] The cadaverine concentration in each sample was quantified using NMR, and yield was calculated by dividing the molar amount of cadaverine produced by the molar amount of lysine added.

On to `NCCCCCN` [cadaverine], for which the “Effect of cadaverine on growth of E. coli” value in the assay with E. coli is given as “inhibits growth”. For the same compound, the “Effect of cadaverine pre-incubation on the cells' ability to convert lysine to cadaverine” value in the assay with H. alvei is on record as “significant decrease in conversion ability”.
